Assay results from patent US9029405B2, “5-(biphenyl-4-yl)-3-phenyl-1,2,4-oxadiazolyl derivatives as ligands on the sphingosine 1-phosphate(SIP)receptors” (Merck Serono S.A., priority 2010, dated 2015).
Where a name gives a salt, the structure may show the parent alone. Read-outs that look alike come from different tables or passages of the source.

Tests used:
[1] = biological target: T1, S1P1 (Homo sapiens, UniProt P21453); test: Receptor binding assay, [33P]sphingosine 1-phosphate competition, membranes of CHO cells expressing S1P1
Method: (§1) Membranes were prepared from CHO cells expressing S1P1 or S1P3 for use in ligand binding studies. Cells were suspended in 50 mM TRIS, pH 7.4, 2 mM EDTA, 250 mM Sucrose (buffer A) and 1× Complete protease inhibitor cocktail (Roche), and disrupted at 4° C. by N2 decompression using a cell disruption bomb (Parr Instrument). Following centrifugation at 1000 RPM for 10 min at 4° C., the supernatant was diluted (2×) in buffer A and centrifuged again at 19000 RPM for 75 min at 4° C. The pellet was then suspended in 10 mM HEPES, pH 7.4, 1 mM EDTA, 250 mM Sucrose (Buffer B), and 1× Complete EDTA-free protease inhibitor cocktail and homogenized using a potter. Membranes were flash frozen in liquid N2 and stored at −80° C.
(§2) [33P]sphingosine 1-phosphate (3000 Ci/mmol; American Radiolabeled Chemicals, Inc.) was added to test compounds in 20% DMSO by competition. Membranes and WGA SPA beads (GE Healthcare) were added to give a final volume of 100 μl in 96-well plates or 50 μl in 384-well plates with assay concentrations of 30 pM or 15 pM [33P]sphingosine 1-phosphate (respectively for S1P1 or S1P3), 50 mM HEPES, pH 7.5, 5 mM MgCl2, 100 mM NaCl, 0.4% fatty acid-free BSA, 1-5 μg/well of proteins in 96-well plates vs 0.6-1 μg/well of proteins in 384-well plates and 100 μg/well of WGA SPA beads in 96-well plates vs 75 μg/well of WGA SPA beads in 384-well plates. Binding was performed for 60 min at RT on a shaker and bound radioactivity was measured on a PerkinElmer 1450 MicroBeta counter. Triplicate samples were averaged and normalized as percentage of inhibition relative to total binding (only DMSO in well) and non specific binding (1000-fold excess of unlabeled S1P). Binding data were analyzed using the GraphPad Prism program or Genedata software.
(§3) The “potency” or the “activity” of the compounds is determined by the Ki values as evaluated in one of the above described binding assay, 96 or 384 well plates.
Target sequence in this assay (P21453 whole entry, species assumed): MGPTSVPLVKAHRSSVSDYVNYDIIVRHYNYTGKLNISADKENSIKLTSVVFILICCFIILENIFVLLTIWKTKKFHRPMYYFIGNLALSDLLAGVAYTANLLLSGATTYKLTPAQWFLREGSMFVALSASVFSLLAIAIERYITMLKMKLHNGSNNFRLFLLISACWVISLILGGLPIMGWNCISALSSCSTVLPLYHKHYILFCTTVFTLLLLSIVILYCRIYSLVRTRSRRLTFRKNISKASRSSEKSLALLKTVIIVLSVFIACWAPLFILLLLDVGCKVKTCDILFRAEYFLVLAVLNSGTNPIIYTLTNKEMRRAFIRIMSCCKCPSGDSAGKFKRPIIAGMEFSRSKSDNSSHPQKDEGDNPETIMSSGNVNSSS

[2] = biological target: S1P3 (Homo sapiens, UniProt Q99500); test: Receptor binding assay, [33P]sphingosine 1-phosphate competition, membranes of CHO cells expressing S1P3
Method: as §1, §2, §3

[3] = biological target: T1, S1P1; test: S1P1 internalization assay in S1P1-U2OS cells (cell imaging); format: cell-based; design: host or cells: U2OS (human bone osteosarcoma epithelial cells); conditions: U2OS cells expressing S1P1-EGFP, 384-well format
Method: Cellular Functional Assays: Internalization of Sphinqosine-1-phosphate Receptor 1 (S1P1) in a Human Cell Line (U2OS) in a 384-Well Format Using a Cell Imaging Analysis.
The S1P1 internalization assay was performed in 384 well plates (Corning 384 black with clear bottom 3712) using S1P1-U2OS cells from BioImage (C039A), a human epithelial cell line (Human Bone Osteosarcoma Epithelial Cells). These cells expressed the human S1P1 Receptor fused to the green fluorescent protein (EGFP). A standard CMV promoter (cytomegalovirus promoter) controls the expression of S1P1-EGFP and continuous expression was maintained by addition of geneticin to the culture medium.
S1P1 Receptor desensitization induced the internalization of the membrane-localized S1P-EGFP fusion protein to endosomes, which can be monitored by cell imaging analysis.
The cells are plated in low serum medium (Dulbecco's Modified Eagle Medium (DMEM) with Glutamax-1 and high glucose, 1% Penicillin/Streptomycin, 1% Fetal Calf Serum (FCS), 0.5 mg/ml Geneticin) overnight.
The next day, S1P1-U2OS cells are incubated in 20 μl serum free medium (DMEM with Glutamax-1 and high glucose, 0.1% of fatty-acid free Bovin Serum Albumin (BSA), 10 mM, N′-2-Hydroxyethylpiperazine-N′-2 ethanesulphonic acid (HEPES) 1M) for 2 hours at 37° C./5% CO2. The cells are then treated with 4 μl compounds/agonists (6×/3% DMSO) for a total volume of 24 μl, and plates are incubated for 1 hour at 37° C./5% CO2.
S1P1-U2OS cells are fixed with 25 μl Paraformaldehyde 8% and stained with Hoechst 33345 dye (1:1000) for 20 minutes.
They were then washed 3 times with Phosphate Buffered Saline (PBS) and plates are sealed. The internalization of the receptor S1P1-EGFP is measured on Cellomics by calculating the “spot count per object” (“object” corresponds to nuclear and “spot” corresponds to S1P1-EGFP receptor). Internalization data were observed thanks to vHCS View and analyzed using Genedata® software.
Target sequence in this assay (P21453 whole entry): as the sequence (P21453 whole entry, species assumed) above

[4] = 384 well plate, read-out: S1P1 Binding Ki [M] (384 well plate)
[5] = 384 well plate, read-out: S1P3 Binding Ki [M] (384 well plate)
[6] = 96 well plate, read-out: S1P1 Binding Ki [M] (96 well plate)
[7] = 96 well plate, read-out: S1P3 Binding Ki [M] (96 well plate)

Sequence of S1P3 (Q99500 whole entry, species assumed): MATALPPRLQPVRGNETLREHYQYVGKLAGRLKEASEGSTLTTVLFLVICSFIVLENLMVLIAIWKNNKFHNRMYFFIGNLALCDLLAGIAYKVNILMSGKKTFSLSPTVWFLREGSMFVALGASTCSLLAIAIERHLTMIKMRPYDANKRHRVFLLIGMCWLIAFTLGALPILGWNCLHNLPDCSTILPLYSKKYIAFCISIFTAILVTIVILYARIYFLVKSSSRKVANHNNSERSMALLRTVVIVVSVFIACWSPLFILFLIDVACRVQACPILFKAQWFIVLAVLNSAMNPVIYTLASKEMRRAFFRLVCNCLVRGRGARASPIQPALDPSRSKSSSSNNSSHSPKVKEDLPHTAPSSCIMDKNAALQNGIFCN

SMILES	Ki [1, 4] [M]	Ki [2, 5] [M]	EC50 [3] [nM]	Ki [1, 6] [M]	Ki [2, 7] [M]
COCc1cc(-c2nc(-c3ccc(CNC(C)(C)C(=O)O)c(F)c3)no2)ccc1-c1ccccc1C [Example 16, N-(2-fluoro-4-{5-[2-(methoxymethyl)-2′-methylbiphenyl-4-yl]-1,2,4-oxadiazol-3-yl}benzyl)-2-methylalanine, hydrochloride salt]	1.23e-09	7.2e-07	8.43	–	–
Cc1ccccc1-c1ccc(-c2nc(-c3ccc([C@@H](C)N[C@H](C)C(=O)O)cc3)no2)cc1C(F)(F)F [Example 20, N-[(1R)-1-(4-{5-[2′-methyl-2-(trifluoromethyl)biphenyl-4-yl]-1,2,4-oxadiazol-3-yl}phenyl)ethyl]-D-alanine, hydrochloride salt]	1.63e-09	2.27e-06	7.57	8.67e-10	6.83e-06
Cc1ccccc1-c1ccc(-c2nc(-c3ccc([C@H](C)N[C@@H](C)C(=O)O)cc3)no2)cc1C(F)(F)F [Example 18, N-[(1S)-1-(4-{5-[2′-methyl-2-(trifluoromethyl)biphenyl-4-yl]-1,2,4-oxadiazol-3-yl}phenyl)ethyl]-L-alanine, hydrochloride salt]	1.03e-08	3.65e-06	116	–	–
Cc1cc(-c2nc(-c3ccc([C@@H](C)NCC(=O)O)cc3)no2)ccc1-c1ccccc1C(F)(F)F [Example 8, N-[(1R)-1-(4-{5-[2-methyl-2′-(trifluoromethyl)biphenyl-4-yl]-1,2,4-oxadiazol-3-yl}phenyl)ethyl]glycine, hydrochloride salt]	3.68e-09	6.38e-06	26.9	9.13e-10	> 2e-05
CCC(NCc1ccc(-c2noc(-c3ccc(-c4ccccc4C)c(C(F)(F)F)c3)n2)cc1F)C(=O)O (stereo not drawn) [Example 41, 2-[(2-fluoro-4-{5-[2′-methyl-2-(trifluoromethyl)biphenyl-4-yl]-1,2,4-oxadiazol-3-yl}benzyl)amino]butanoic acid, hydrochloride salt]	4.88e-09	8.72e-06	12.8	–	–
Cc1ccccc1-c1ccc(-c2nc(-c3cccc(CCN[C@H](C(=O)O)C(C)C)c3)no2)cc1C(F)(F)F [Example 96]	5.33e-10	1.78e-07	3.73	–	–
CCC(NCc1ccc(-c2noc(-c3ccc(-c4ccccc4C)c(C(F)(F)F)c3)n2)cc1)C(=O)O (stereo not drawn) [Example 58]	3.39e-09	5.22e-06	4.87	–	–
Cc1ccccc1-c1ccc(-c2nc(-c3ccc(CN[C@H](C(=O)O)C(C)C)cc3)no2)cc1C(F)(F)F [Example 55]	2.2e-09	8.02e-07	16.8	–	–
CCC(C(=O)O)N(C)Cc1ccc(-c2noc(-c3ccc(-c4ccccc4C)c(C(F)(F)F)c3)n2)cc1F (stereo not drawn) [Example 1, 2-[(2-fluoro-4-{5-[2′-methyl-2-(trifluoromethyl)biphenyl-4-yl]-1,2,4-oxadiazol-3-yl}benzyl)(methyl)amino]butanoic acid, hydrochloride salt]	2.81e-09	1.77e-06	43.3	–	–
Cc1ccccc1-c1ccc(-c2nc(-c3ccc([C@H](C)N[C@H](C)C(=O)O)cc3)no2)cc1C(F)(F)F (racemic) [Example 27, N-[(1S)-1-(4-{5-[2′-methyl-2-(trifluoromethyl)biphenyl-4-yl]-1,2,4-oxadiazol-3-yl}phenyl)ethyl]-D-alanine, hydrochloride salt and N-[(1R)-1-(4-{5-[2′-methyl-2-(trifluoromethyl)biphenyl-4-yl]-1,2,4-oxadiazol-3-yl}phenyl)ethyl]-L-alanine, hydrochloride salt]	2.21e-09	1.33e-06	7.84	–	–
COCc1cc(-c2nc(-c3ccc(C(C)N(C)[C@@H](C)C(=O)O)cc3)no2)ccc1-c1ccccc1C (stereo partly drawn) [Example 37, N-[1-(4-{5-[2-(methoxymethyl)-2′-methylbiphenyl-4-yl]-1,2,4-oxadiazol-3-yl}phenyl)ethyl]-N-methylalanine]	1.44e-09	3.4e-06	15.1	–	–
Cc1ccccc1-c1ccc(-c2nc(-c3ccc(CN(C)[C@@H](C)C(=O)O)cc3)no2)cc1C(F)(F)F [Example 70]	2.98e-09	7.53e-07	18.8	–	–
Cc1ccccc1-c1ccc(-c2nc(-c3ccc(CN[C@H](C(=O)O)C(C)C)c(F)c3)no2)cc1C(F)(F)F [Example 47, N-(2-fluoro-4-{5-[2′-methyl-2-(trifluoromethyl)biphenyl-4-yl]-1,2,4-oxadiazol-3-yl}benzyl)valine, hydrochloride salt]	4.26e-09	1.95e-05	39.1	–	–
Cc1ccccc1-c1ccc(-c2nc(-c3cccc(CCN[C@@H](C)C(=O)O)c3)no2)cc1C(F)(F)F [Example 94, (2S)-2-(3-(5-(2′-methyl-2-(trifluoromethyl)biphenyl-4-yl)-1,2,4-oxadiazol-3-yl)phenethylamino)propanoic acid]	1.01e-09	7.4e-08	2.91	1.85e-10	–
COCc1cc(-c2nc(-c3ccc(C(C)N(C)CC(=O)O)cc3)no2)ccc1-c1ccccc1C (stereo not drawn) [Example 15, N-[1-(4-{5-[2-(methoxymethyl)-2′-methylbiphenyl-4-yl]-1,2,4-oxadiazol-3-yl}phenyl)ethyl]-N-methylglycine, hydrochloride salt]	1.98e-09	5.68e-07	89.3	–	–
Cc1ccccc1-c1ccc(-c2nc(-c3ccc([C@@H](C)N(C)CC(=O)O)cc3)no2)cc1C(F)(F)F [Example 36, N-methyl-N-[(1R)-1-(4-{5-[2′-methyl-2-(trifluoromethyl)biphenyl-4-yl]-1,2,4-oxadiazol-3-yl}phenyl)ethyl]glycine, hydrochloride salt]	2.55e-09	7.93e-07	33.6	–	–
Cc1ccccc1-c1ccc(-c2nc(-c3ccc(CN(C)[C@@H](C)C(=O)O)c(F)c3)no2)cc1C(F)(F)F [Example 50, N-(2-fluoro-4-{5-[2′-methyl-2-(trifluoromethyl)biphenyl-4-yl]-1,2,4-oxadiazol-3-yl}benzyl)-N-methylalanine, hydrochloride salt]	3.02e-09	6.61e-07	25.8	–	–
Cc1ccccc1-c1ccc(-c2nc(-c3cccc(CNC(C(=O)O)C(C)C)c3)no2)cc1C(F)(F)F (stereo not drawn) [Example 79]	1.07e-09	2.67e-07	15.1	–	3.32e-08
Cc1ccccc1-c1ccc(-c2nc(-c3ccc(CN(C)C(C)(CO)C(=O)O)cc3)no2)cc1C(F)(F)F (stereo not drawn) [Example 75]	5.3e-09	2.3e-06	30.2	–	–
Cc1ccccc1-c1ccc(-c2nc(-c3ccc([C@@H](C)N[C@@H](C)C(=O)O)cc3)no2)cc1C(F)(F)F [Example 19, N-[(1R)-1-(4-{5-[2′-methyl-2-(trifluoromethyl)biphenyl-4-yl]-1,2,4-oxadiazol-3-yl}phenyl)ethyl]-L-alanine, hydrochloride salt]	3.98e-09	2.56e-06	45.6	–	–
